Results taken from patent US6417397B1, “N-substituted alkylamino acids for use as amino-protecting groups” (The Regents of the University of California, San Diego, priority 1999, dated 2002).

Test: Acidolysis (rate of scission) of acylated NMeAib amides with 2% TFA in acetonitrile
Type: physicochemical
Settings: for t½ of protecting group: mild acidic conditions (2% TFA in acetonitrile)
Description: In accordance with the present invention, it has been discovered that the rate of reaction can be altered simply by modifying X. Thus, for electron-donating X groups the rate of scission (the sensitivity to acidic conditions) increases. The opposite effect holds true for electron-withdrawing X groups. Four p-substituted benzoyl-N—MeAib—Phe—OMe (7a-d) compounds were subjected to acidic conditions (2% trifluoroacetic acid (TFA) in acetonitrile) and the rate of scission measured for each protecting group.
The equation representing the line in FIG. 1 is particularly useful because it allows one to predict the rate of scission for any m-substituted or p-substituted X—C6H4C(O)—NMeAib amide where a for the parent acid is known. […]

[1] = acidolysis with 2% TFA in acetonitrile

Compound: COC(=O)[C@H](Cc1ccccc1)NC(=O)C(C)(C)N(C)C(=O)c1ccc(C(F)(F)F)cc1 [CF3, p-CF3—C6H4C(O)—NMeAib—Phe—OMe]
- Half-life [1]: 5 h
- k [1]: 3.7e-05 ± 2e-06 s⁻¹

Compound: COC(=O)[C@H](Cc1ccccc1)NC(=O)C(C)(C)N(C)C(=O)c1ccc(C#N)cc1 [CN, p-CN—C6H4C(O)—NMeAib—Phe—OMe]
- Half-life [1]: 8 h
- k [1]: 2.3e-05 ± 1e-06 s⁻¹

Compound: COC(=O)[C@H](Cc1ccccc1)NC(=O)C(C)(C)N(C)C(=O)c1ccc(Cl)cc1 [Cl, p-Cl—C6H4C(O)—NMeAib—Phe—OMe]
- Half-life (2% TFA in acetonitrile): about 2 hours
- Half-life [1]: 2 h
- k [1]: 8.3e-05 ± 3e-06 s⁻¹

Compound: COC(=O)[C@H](Cc1ccccc1)NC(=O)C(C)(C)N(C)C(=O)c1ccc([N+](=O)[O-])cc1 [NO2, p-NO2—C6H4—C(O)—NMeAib—Phe—OMe]
- Half-life (2% TFA in acetonitrile): about 12 hours
- Half-life [1]: 12 h
- k [1]: 1.5e-05 ± 1e-06 s⁻¹

Compound: COc1ccc(C(=O)N(C)C(C)(C)C(=O)O)cc1 [p-methoxy-benzoyl-NMeAib]
- t½ of protecting group: 0.333 h

Compound: p-N(CH3)2C6H4C(O)—NMeAib
- half life predicted from the linear free energy equation of FIG. 1 (predicted from σ of the parent acid, X = dimethylamino): about 29 seconds

Compound: p-nitro-benzoyl-NMeAib
- t½ of protecting group: 12 h
